Like-named read-outs stand apart in the source and are kept apart here.
Tests used:
human MPC1L/MPC2 complex = target: T1, human MPC1L/MPC2 complex (Homo sapiens, UniProt O95563+P0DKB6); experiment: CPM thermostability shift assay, purified MPC1L/MPC2; format: binding; conditions: for ΔTm at 100 µM: read-out: ∆Tm, CPM assay (thermal shift compared to no-ligand control); for Tm, CPM assay: unliganded 51.3 ± 0.2, mean ± s.d., 3 biological repeats
T1 construct: eight-histidine tag (C, cleaved yes); TEV protease cleavage site (part stays on MPC2 after digestion) (C, cleaved yes); made in house; host or cells: Saccharomyces cerevisiae SHY15 (mpc triple deletion strain), purified from mitochondria
T1 sequence (P0DKB6 2-136): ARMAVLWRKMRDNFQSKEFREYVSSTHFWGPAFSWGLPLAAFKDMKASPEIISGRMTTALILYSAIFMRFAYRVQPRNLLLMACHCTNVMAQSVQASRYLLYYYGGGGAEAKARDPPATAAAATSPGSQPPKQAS
T1 sequence (O95563 2-127): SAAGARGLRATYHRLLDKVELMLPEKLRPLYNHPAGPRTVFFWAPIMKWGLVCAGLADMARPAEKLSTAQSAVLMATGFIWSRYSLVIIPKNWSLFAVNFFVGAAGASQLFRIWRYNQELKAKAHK
Description: The assessment of ligand binding was performed via shifts in protein thermostability upon binding using thermal denaturation on a rotary quantitative PCR (qPCR) instrument (Qiagen Rotor-Gene Q 2plex HRM, Venlo, Netherlands), as previously described. In this method, cysteine residues, buried within the protein structure, become solvent-exposed during denaturation in a temperature ramp and then react with 7-diethylamino-3-(4-maleimidophenyl)-4-methylcoumarin (CPM) to form fluorescent-adducts. Briefly, a CPM working solution was prepared by diluting the CPM stock (5 mg/mL in dimethyl sulfoxide) 50-fold into assay buffer (20 mM Tris–HCl, pH 7.4, 150 mM NaCl, 0.1% (w/v) LMNG, 0.1 mg/mL TOCL) and incubated for 10 min at room temperature. In each analysis, performed in duplicates or triplicates, 3 μg of purified MPC was diluted into 45 μL of assay buffer containing the desired concentration of the inhibitor then incubated for 10 min on ice. Next, 5 μL of the CPM working solution were added. Samples were incubated on ice for an additional 10 min then subjected to a temperature ramp of 5.6 °C/min. The fluorescence increase was monitored with the HRM channel of the instrument (excitation at 440–480 nm, emission at 505–515 nm). Unfolding profiles were analysed with the Rotor-Gene Q software 2.3, and the peaks of their derivatives were used to determine the apparent melting temperature.

[1] = target: T2, recombinant human MPC1L/MPC2 (Homo sapiens, UniProt O95563+P0DKB6); experiment: Electrospray mass spectrometry of MPC1L/MPC2 after reaction with inhibitors or sulfhydryl modifiers
T2 construct: MPC1L (2–136); MPC2 (2–137); eight-histidine tag (C, cleaved yes); TEV protease cleavage site (part stays on MPC2 after digestion) (C, cleaved yes); made in house; host or cells: Saccharomyces cerevisiae SHY15 (mpc triple deletion strain), purified from mitochondria
T2 sequence (P0DKB6 2-136 limits assumed): T1 sequence (P0DKB6 2-136)
T2 sequence (O95563 2-127 limits assumed): T1 sequence (O95563 2-127)
Description: Different MPC inhibitors (Table1) or sulfhydryl reagents were first incubated with MPC1L/MPC2 in a folded state, then the protein molecular masses were measured by electrospray mass spectrometry. The MPC subunits (10 μg) were resolved by reverse-phase HPLC on a PLRP-S column (1.0 mm i.d. X 75 mm; VARIAN) using a gradient of 2-propanol in a solvent system compatible with the recovery of membrane proteins (Carroll et al., 2009). The eluate (50 μL/min) was introduced into a QTRAP4000 (SCIEX) mass spectrometer operating in positive ion single MS mode. The instrument was scanned from 700 m/z to 2300 m/z after calibration with ions from a mixture of 1.0 μM of myoglobin and 1.5 μM trypsinogen. Molecular masses were obtained by reconstruction of the spectra of multiply charged ions using PeakView (SCIEX).

[2] = target: T3, human MPC1L/MPC2 hetero-dimer (Homo sapiens, UniProt O95563+P0DKB6); experiment: Inhibition of [14C]-pyruvate homo-exchange in MPC1L/MPC2 proteoliposomes; format: biochemical; conditions: MPC1L/MPC2 proteoliposomes, 50 μM [14C]-pyruvate homo-exchange, mean ± s.d.; read-out: IC50 of pyruvate transport inhibition
T3 construct: eight-histidine tag (C, cleaved yes); TEV protease cleavage site (part stays on MPC2 after digestion) (C, cleaved yes); made in house; host or cells: Saccharomyces cerevisiae SHY15 (mpc triple deletion strain), purified from mitochondria
T3 sequence (P0DKB6 2-136): T1 sequence (P0DKB6 2-136)
T3 sequence (O95563 2-127): T1 sequence (O95563 2-127)
Description: Egg L-α-phosphatidylcholine 99% (w/v) (Avanti Polar Lipids, AL, USA) and TOCL were mixed in a 20:1 (w/w) ratio, dried under a stream of nitrogen and washed once with methanol before being dried again. Lipids were hydrated in 20 mM Tris–HCl, pH 8.0, 50 mM NaCl to a concentration of 12 mg/mL. Unlabeled pyruvate was added as a freshly made concentrated stock at a final concentration of 5 mM for internalisation. Lipids were solubilised with 1.2% (v/v) pentaethylene glycol monodecyl ether (Sigma) and freshly purified protein was added at a lipid-to-protein ratio of 250:1 (w/w). Samples were incubated on ice for 5 min, then liposomes were formed by the step-wise removal of pentaethylene glycol monodecyl ether by five additions at 20 min intervals of 60 mg Bio-Beads SM-2 (Bio-Rad, Watford, UK) with gentle mixing at 4 °C. A final addition of 480 mg Bio-Beads was incubated with the samples overnight. Proteoliposomes were first separated from the Bio-Beads by passage through empty spin columns (Bio-Rad, Watford, UK) and subsequently pelleted at 120,000×g for 60 min. The proteoliposomes were resuspended with a thin needle in 150 μL of their supernatant after the rest of the supernatant was removed.
The time course of pyruvate homo-exchange was measured at room temperature. The transport was initiated by diluting proteoliposomes 200-fold into external buffer, 20 mM MES, pH 6.4, 50 mM NaCl, containing 50 μM [^14C]-pyruvate (500,000 dpm, Perkin Elmer, MA, USA). The reaction (0–30 s) was terminated by rapid dilution into 8 volumes of ice-cold internal buffer (20 mM Tris–HCl, pH 8.0, 50 mM NaCl), followed by rapid filtration through cellulose nitrate 0.45 μm filters (Millipore, Gillingham, UK) and washing with an additional 8 volumes of buffer. The filters were dissolved in Ultima Gold scintillation liquid (Perkin Elmer, MA, USA) and the radioactivity was counted with a Perkin Elmer Tri-Carb 2800 RT liquid scintillation counter. […] The data analysis was performed with non-linear regression fittings using GraphPad Prism 7.0d ([Inhibitor] vs response, variable slope). The specific uptake rates were calculated based on the amount of protein used in reconstitutions, as estimated from bicinchoninic acid assay. The biological repeats represent independent proteoliposome preparations using protein from independent purifications.

[3] = MPC1L/MPC2 after reaction with compound

SMILES | ΔTm at 100 µM (human MPC1L/MPC2 complex; inhibitor 100 μM) [°C] | Tm, CPM assay (human MPC1L/MPC2 complex; inhibitor 100 μM) [°C] | also measured
COc1ccc(/C=C(/C#N)C(=O)O)cc1 [Compound 1] | 9.1 ± 1.2 | 60.4 ± 1.0 | 
N#C/C(=C/c1ccc(-c2ccc(Br)cc2)o1)C(=O)O [Compound 3] | 8.4 ± 1.3 | 59.7 ± 1.1 | 
N#C/C(=C/c1ccc(-c2ccc(F)cc2)o1)C(=O)O [Compound 4] | 9.1 ± 1.5 | 60.4 ± 1.3 | 
N#C/C(=C/c1ccc(-c2ccc(Cl)cc2)o1)C(=O)O [Compound 5] | 9 ± 1.6 | 60.3 ± 1.4 | 
N#C/C(=C/c1ccc(-c2cccc(C(F)(F)F)c2)o1)C(=O)O [Compound 6] | 8.5 ± 1.6 | 59.8 ± 1.4 | 
N#C/C(=C/c1ccc(-c2ccccc2[N+](=O)[O-])o1)C(=O)O [Compound 7] | 16.5 ± 1.4 | 67.8 ± 1.2 | Mass difference (observed vs calculated), MPC1L (2–136) [1, 3]: 0.5 Da; Mass difference (observed vs calculated), MPC1L (5–136) [1, 3]: 0.9 Da; Mass difference (observed vs calculated), MPC2 (2–137) [1, 3]: 1.6 Da; Covalent modification of MPC protomers (molecular mass change) ([1]; folded MPC1L/MPC2 incubated with compound, ESI-MS): no molecular mass differences; IC50 [2]: 5.4 ± 1.1 nM
N#C/C(=C/c1ccc(-c2ccccc2Cl)o1)C(=O)O [Compound 8] | 11 ± 1.9 | 62.3 ± 1.7 | 
N#C/C(=C/c1ccc(-c2cccc([N+](=O)[O-])c2)o1)C(=O)O [Compound 9] | 11.7 ± 2 | 63.0 ± 1.8 | 
O=C(O)C(=Cc1ccc(-c2ccccc2[N+](=O)[O-])o1)C(=O)O [Compound 10] | -0.1 ± 1.1 | 51.2 ± 0.9 | ∆Tm, CPM assay (thermal shift compared to no-ligand control) (human MPC1L/MPC2 complex; inhibitor 100 μM): No thermal shift
O=C1NC(=O)C(=Cc2ccc(-c3ccccc3[N+](=O)[O-])o2)C(=O)N1 [Compound 11] |  | 57.7 ± 2.1 | ΔTm at 100 µM (human MPC1L/MPC2 complex): 6.4 ± 2.3 °C
CN1C(=O)NC(=O)/C(=C/c2ccc(-c3ccccc3[N+](=O)[O-])o2)C1=O [Compound 12] | 9.1 ± 0.9 | 60.4 ± 0.7 | 

Reference: article PMC8968063, “Key features of inhibitor binding to the human mitochondrial pyruvate carrier hetero-dimer” (Molecular Metabolism, 2022)
